In PubChem BioAssay (NCI):
Values joined by “and” are separate entries in the source; they are usually repeats but may differ in a detail not shown here. Identical values can stand only once.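 Method: 48-hour compound exposure of cells in 96-well plates, five concentrations, linear interpolation of endpoints. At the GI50, growth is halved. TGI denotes the concentration required for complete inhibition of growth.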

Experiments:
Assay in all cases: inhibition of tumour cell growth, NCI panel, 48 h
ACHN renal = system: ACHN renal
HCT-116 colon = system: HCT-116 colon
HT29 colon = system: HT29 colon
LOX IMVI melanoma = system: LOX IMVI melanoma
MDA-MB-231 breast = system: MDA-MB-231 breast
OVCAR-8 ovarian = system: OVCAR-8 ovarian
SN12C renal = system: SN12C renal
T-47D breast = system: T-47D breast
U251 CNS = system: U251 CNS
UACC-257 melanoma = system: UACC-257 melanoma

Structure (SMILES) | TGI (ACHN renal) | TGI (HCT-116 colon) | TGI (HT29 colon) | TGI (LOX IMVI melanoma) | TGI (MDA-MB-231 breast) | TGI (OVCAR-8 ovarian) | TGI (SN12C renal) | TGI (T-47D breast) | TGI (U251 CNS) [µM] | TGI (UACC-257 melanoma) | GI50 (ACHN renal) [µM] | GI50 (HCT-116 colon) [µM] | GI50 (HT29 colon) [µM] | GI50 (LOX IMVI melanoma) [µM] | GI50 (MDA-MB-231 breast) [µM] | GI50 (OVCAR-8 ovarian) [µM] | GI50 (SN12C renal) [µM] | GI50 (T-47D breast) [µM] | GI50 (U251 CNS) [µM] | GI50 (UACC-257 melanoma) [µM]
COc1cc(OC)c2nc(C)c3c(c2c1)SCC3 | 34.5 µM | 48.5 µM | 99.4 µM | > 100 µM | 44.7 µM | 35.4 µM | 57.9 µM | 58 µM | 55.9 | 78.3 µM |  |  |  |  |  |  |  |  |  | 
COc1cccc(-c2c[nH]c3c(N/N=C/c4ccncc4)ncnc23)c1 | > 22.9 µM | 5.36 µM | 8.9 µM | 6.73 µM | > 22.9 µM | 11.8 µM | > 19.3 µM | > 15.5 µM | 7.94 | 17.5 µM | 1.37 | 1.24 | 1.58 | 1.27 | 3.83 | 2.57 | 1.65 | 3.07 | 2.13 | 6.02
Cn1ncnc1[C@H]1c2n[nH]c(=O)c3cc(F)cc(c23)N[C@@H]1c1ccc(F)cc1 | > 100 µM | > 100 µM | > 100 µM | > 100 µM | > 100 µM | > 100 µM | > 100 µM | > 100 µM | > 100 | > 100 µM | 54.3 | > 80.4 | > 100 | 4.75 | > 100 | > 100 | 3.26 | > 100 | 1.65 | > 100
O=C1Nc2ccc(Br)cc2C1=Nc1cccnc1 | 39.3 µM | 44.5 µM | 51.3 µM | 34.8 µM | 37.6 µM | 51.7 µM | 37.9 µM | 52.7 µM | 24.8 | 55.9 µM |  |  |  |  |  |  |  |  |  | 
O=C1C(Nc2ccc(Cl)cc2)=C(I)C(=O)c2ncccc21 | 1.32 µM | 1.18 µM |  | 2.11 µM | 2.7 µM | 3.12 µM | 2.99 µM | 3.54 µM | 2.8 | 2.6 µM | 0.376 | 0.305 |  | 0.624 | 1.31 | 1.51 | 1.47 | 1 | 1.48 | 1.29
C#CC#CC#CC#CC#CC#CC#CC#CCC1OCC(COC(=O)O[C@@H](C(=O)O[C@H]2C[C@@]3(O)[C@@H](OC(=O)c4ccccc4)[C@@H]4[C@]5(OC(C)=O)CO[C@@H]5C[C@H](O)[C@@]4(C)C(=O)[C@H](OC(C)=O)C(=C2C)C3(C)C)[C@@H](NC(=O)c2ccccc2)c2ccccc2)O1 (some centres not stated) | > 33.3 µM | > 33.3 µM | > 33.3 µM | > 33.3 µM | > 33.3 µM | > 33.3 µM | > 33.3 µM | > 33.3 µM | > 33.3 | > 33.3 µM | > 24.7 | 0.0533 | 0.0387 | 0.0275 | 0.447 | 0.187 | 0.51 | 0.205 | 0.162 | > 8.95
Nc1ncnc2c1N=C(c1ccc3c(c1)OCO3)CC(c1ccc([N+](=O)[O-])cc1)N2 (configuration not stated) | > 100 µM | > 100 µM | > 100 µM | > 100 µM | > 100 µM | > 100 µM | > 100 µM | > 100 µM | > 100 | > 100 µM | 29.1 | 18.2 | 63 | 22.9 | 38.9 | 55.9 | 82.6 | 80.7 | 49.3 | > 100
COc1cccc(N2C(=O)C3c4[nH]c5ccccc5c4C4CCCC4C3C2=O)c1 (configuration not stated) | > 10 µM | 7.16 µM | > 10 µM | > 10 µM | 5.63 µM | > 10 µM | 9.02 µM | > 10 µM | > 10 | > 10 µM |  |  |  |  |  |  |  |  |  | 
Cc1cc(NC(=O)NC(=O)c2ccccc2NC(=O)C(C)N)ccc1Oc1ncc(Br)cn1 (configuration not stated) | 27.4 µM | 27.2 µM | 3.51 µM | 33.5 µM | 11.8 µM | 15.3 µM | 19.5 µM | 29.6 µM | 24.4 | 32.6 µM |  |  |  |  |  |  |  |  |  | 
O=c1cnn(C2OC(CO)C(O)C2O)c(=S)[nH]1 (configuration not stated) | > 100 µM | > 100 µM | > 100 µM | > 68.5 µM | > 100 µM | > 100 µM | > 100 µM | > 100 µM | > 100 | > 100 µM |  |  |  |  |  |  |  |  |  | 
Cc1cc([N+](=O)[O-])c(NS(=O)(=O)c2cccc(C(=O)O)c2)cc1-c1cccnc1 | > 100 µM | > 100 µM | > 100 µM | > 100 µM | > 100 µM | > 100 µM | > 100 µM | > 100 µM | > 100 | > 100 µM | > 100 | > 100 | > 100 | > 100 | > 100 | > 100 | > 100 | > 100 | > 100 | > 100
COC(=O)C1(Cc2ccc3c(c2)CCC3)Cc2ccccc2C1O (configuration not stated) | 38.3 µM | 31.8 µM | 31.6 µM | 34 µM | 67.4 µM | 36 µM | 29.2 µM | > 100 µM | 31.1 | 31.5 µM |  |  |  |  |  |  |  |  |  | 
CC1(C)CC(O)C(C)(C)[C@@H](O)C1 (some centres not stated) | > 100 µM | > 100 µM | > 100 µM | > 100 µM | > 100 µM | > 100 µM | > 100 µM | > 100 µM | > 100 | > 100 µM |  |  |  |  |  |  |  |  |  | 
Cc1ccccc1OCC(O)CN1CCN(c2ccc(Cl)cc2)CC1 (configuration not stated) | 42.2 µM | 29.3 µM | 29.2 µM | 31.3 µM | 29.8 µM | 44.4 µM | 30.8 µM | 47.3 µM | 33.7 | 37.9 µM | 18.8 | 14.6 | 14.5 | 15.3 | 14.4 | 21 | 16 | 18.5 | 18.7 | 20.6
Cc1[nH]c2ccccc2c1CCCO | > 100 µM | > 100 µM | > 100 µM | > 100 µM | > 100 µM | > 100 µM | > 100 µM | > 100 µM | > 100 | > 100 µM | > 100 | > 100 | > 100 | > 100 | > 100 | > 100 | > 100 | > 100 | > 100 | > 100
C[C@H]1CC[C@@]2(NC1)O[C@H]1C[C@H]3[C@@H]4CC[C@H]5C[C@@H](O)CC[C@]5(C)[C@H]4CC[C@]3(C)[C@H]1[C@@H]2C | 21.9 µM and > 100 µM | 17.3 µM and > 100 µM | 50 µM and > 100 µM | 41.8 µM and > 100 µM | 15.9 µM and > 100 µM | 50 µM and > 100 µM | 29.9 µM and > 100 µM | 50 µM and > 100 µM | 33.6 | 50 µM and > 100 µM | 11.2 | 8.32 | 9.75 | 14.4 | 7.26 |  | 11.2 | 12.3 | 11.9 | 22
Cc1c(C(=O)Nc2ccccc2)sc2ncn(Cc3cccc(Cl)c3)c(=O)c12 | > 100 µM | > 100 µM | > 100 µM | > 100 µM | 38.2 µM | 89.1 µM | 85.1 µM | > 100 µM | > 100 | > 100 µM | 30.2 | 19.2 | 78.4 | 57.3 | 12.1 | 28.7 | 20 | 42.9 | 34 | 34.4
O=C(/C=C/Sc1cc(C(F)(F)F)cc(C(F)(F)F)c1)c1ccc(Cl)cc1 | 3.36 µM | 4.09 µM | 23.9 µM | 2.73 µM | 8.67 µM | 45.3 µM | 3.46 µM | 4.09 µM | 16.2 | 27.5 µM | 1.78 | 1.83 | 6.93 | 1.43 | 2.51 | 9.9 | 1.71 | 1.82 | 4.65 | 14.1
O=C(Nc1cccc(-n2cc(-c3ccncc3)c(-c3ccc(Cl)c(O)c3)n2)c1)Nc1cc(C(F)(F)F)cc(C(F)(F)F)c1 | 4.2 µM | 1.24 µM | 1.64 µM | 1.4 µM | 1.66 µM | 5.92 µM | 3.14 µM | 8.93 µM | 1.15 | 2.24 µM | 0.669 | 0.487 | 0.711 | 0.712 | 0.768 | 0.563 | 0.852 | 1.55 | 0.484 | 0.89
CC1CCC/C1=C(/I)C(=O)c1ccccc1 (configuration not stated) | > 100 µM | > 100 µM | > 100 µM | 92.7 µM | > 100 µM | > 100 µM | > 100 µM | > 100 µM | > 100 | > 100 µM |  |  |  |  |  |  |  |  |  | 
O=C1OCC2=C1C(c1cccc(Cl)c1)c1cc3c(cc1N2CCO)OCCO3 (configuration not stated) | > 100 µM | 4.01 µM | 0.282 µM | 17.9 µM | 4.26 µM | 4.33 µM | 46.3 µM | > 100 µM | 7.14 | 28.2 µM | 0.0733 | 0.0566 | 0.0402 | 0.0689 | 0.334 | 0.176 | 0.27 | 0.0677 | 0.0542 | 0.0364
CC(=O)NCCC1CN(C(=O)/C=C/I)c2ccccc21 (configuration not stated) | 17.8 µM | 14.3 µM | 12.9 µM | 3.25 µM | 5.15 µM | 25.4 µM | 13.3 µM | 4.46 µM | 24.2 | 20.4 µM |  |  |  |  |  |  |  |  |  | 
